Values joined by “and” are separate entries in the source; they are usually repeats but may differ in a detail not shown here. Identical values can stand only once.
Legend:
[1] = test system: HMO2, HepG2, HeLa and mouse lymphoma cells; design: method as in PMID 12193030, PMID 15165143, PMID 17822294; settings: including HMO2, HepG2, HeLa and mouse lymphoma cells; cited from earlier work
[2] = test system: S. Typhimurium biofilm; settings: concentration preventing biofilm formation (at 25 °C) by 50%; as previously reported ref 13, 14, 15, 16; read-out: BIC50 S. Typhimurium; cited from earlier work
[3] = test system: murine leukemia (L1210); experiment: Cytostatic activity against tumor cell lines (cell number by Coulter counter); type: cell-based; settings: Mus musculus, L1210, 48 h; concentration inhibiting cell proliferation by 50%; two days incubation; mean of three repeats
Protocol: (§1) The IC50 was defined as the compound concentration required to inhibit cell proliferation by 50%. The therapeutic index (TI) was calculated as the ratio of the compound concentration producing toxicity (IC50) to the concentration needed to exert the desired ‘therapeutic’ effect on biofilms of Salmonella and Pseudomonas, indicated by the BIC50 (dose needed to prevent biofilm formation by 50%). The higher the therapeutic index, the broader the safety window of the compound.
(§2) Murine leukemia (L1210), human T-lymphocyte (CEM) and human cervix carcinoma (HeLa) were suspended at 300,000–500,000 cells/mL of culture medium, and 100 µL of a cell suspension was added to 100 µL of an appropriate dilution of the test compounds in 200 µL-wells of 96-well microtiter plates. After incubation at 37 °C for two (L1210), three (CEM) or four (HeLa) days, the cell number was determined using a Coulter counter. The IC50 was defined as the compound concentration required to inhibit cell proliferation by 50%.

[4] = test system: human T-lymphocyte (CEM); experiment: as above; type: cell-based; settings: 72 h, concentration inhibiting cell proliferation by 50%, three days incubation, mean of three repeats
Protocol: as §1, §2

[5] = test system: human cervix carcinoma (HeLa); experiment: as above; type: cell-based; settings: 96 h, concentration inhibiting cell proliferation by 50%, four days incubation, mean of three repeats
Protocol: as §1, §2

[6] = test system: P. aeruginosa biofilm; settings: concentration preventing biofilm formation (at 25 °C) by 50%; as previously reported ref 13, 14, 15, 16; read-out: BIC50 P. aeruginosa; cited from earlier work
[7] = test system: C. elegans; type: in vivo, Caenorhabditis elegans; settings: for C. elegans % survival at 25 µM: after 7 days relative to viability at day 0, mean of at least two repeats
Protocol: Eggs of a double mutant (glp-4Dsek-1D) of C. elegans were grown on NGM/OP50 agar plates (NGM agar plates on the surface inoculated with 100 µL of an overnight culture of OP50 Escherichia coli and stored at 4 °C until use) at 25 °C until all nematodes had reached the L4 stage. Worms were collected and washed with M9 buffer (3 g/L KH2PO4, 6 g/L Na2HPO4, 5 g/L NaCl, 1 mM MgSO4). For toxicity testing, 40 to 50 worms were suspended in 250 μL M9 (supplemented with 10 µg/mL cholesterol, 75 µg/mL ampicillin and 100 µg/mL kanamycin) buffer in each well of 24-well microtiter plates, in the presence or absence (0.5% DMSO control) of 25, 100 or 200 µM of the test compounds and grown for 7 days at 25 °C. The percentage survival of the worms in the presence or absence of anti-biofilm compounds was calculated after 7 days relative to their viability at day 0.

| Structure (SMILES) | cytotoxicity to a variety of cell lines [1] | IC50 [2] | IC50 [3] [µM] | IC50 [4] [µM] | IC50 [5] [µM] | IC50 [6] | C. elegans % survival at 25 µM [7] [%] | effect on C. elegans survival at 100 µM ([7]; 100 µM, 7 days of exposure) | effect on C. elegans survival at 200 µM ([7]; 200 µM, 7 days of exposure) |
| --- | --- | --- | --- | --- | --- | --- | --- | --- | --- |
| COc1ccc(Cc2nc(N)n(C)c2Cc2cc(O)c(OC)c(O)c2)cc1 [2f, naamine E] | cytotoxic |  |  |  |  |  |  |  |  |
| CCCCCCCCCCCCCn1c(-c2ccc(Cl)cc2)cnc1N [compound 8] |  | 19.5 µM | 7.2 | 6.4 | 4.5 | 33.9 µM |  |  |  |
| Nc1ncc(-c2ccc([N+](=O)[O-])cc2)[nH]1 [compound 4] |  | 17.6 µM | 83.3 | 63.7 | 108 | 34.5 µM | 97.3 |  |  |
| CCCCNc1ncc(-c2ccc(Cl)cc2)[nH]1 [compound 21] |  |  | 40 | 375 | 34.7 |  |  |  |  |
| Nc1ncc(-c2ccc(-c3ccccc3)cc2)[nH]1 [compound 3] |  | 17.3 µM | 37.4 | 13.6 | 34 | 8.6 µM |  |  |  |
| Nc1ncc(-c2ccccc2)[nH]1 [compound 1] |  | 130 µM | 62.9 | 94.3 | 145 | 72.6 µM | 89.8 | none of the compounds significantly affect | do not significantly affect survival |
| CCCCNc1ncc(-c2ccccc2)[nH]1 [compound 18] |  | 25.3 µM | 46.4 | 667 | 19.5 | 31.8 µM |  |  |  |
| Cc1ccc(-c2nc(N)[nH]c2-c2ccc(Cl)cc2)cc1 [compound 32] |  | 12.9 µM | 12.3 | 10.2 | 9.5 |  |  |  |  |
| CCCCCCCCn1c(-c2ccc(-c3ccccc3)cc2)cnc1N [compound 10] |  | 3.3 µM | 7.8 | 8.3 | 6.6 | 8.9 µM |  |  |  |
| Nc1nc(-c2ccc(Cl)cc2)c(-c2ccccc2)[nH]1 [compound 31] |  | 46.9 µM | 59.3 | 48.2 | 40.8 |  |  |  |  |
| C/N=C1N=C(/N=c2\[nH]c(Cc3ccc(OC)cc3)c(Cc3cc(OC)c(O)c(OC)c3)n2C)C(=O)N\1C [2l, naamidine I] | cytotoxic |  |  |  |  |  |  |  |  |
| Nc1ncc(-c2ccc(-c3ccccc3)cc2)n1C1CCCC1 [compound 11] |  | 7.5 µM | 4.3 | 2.9 | 8.2 | 353 µM |  |  |  |
| c1ccc(-c2cn(CCCNc3ncc(-c4ccccc4)[nH]3)nn2)cc1 [compound 36] |  | 36.5 µM | 221 | 453 | 72.9 | > 400 µM | 87.7 |  |  |
| COc1ccc(-c2nc(N)[nH]c2-c2ccccc2)cc1 [compound 30] |  | 77.1 µM | 64.1 | 52.8 | 45.2 |  |  |  |  |
| Nc1ncc(-c2ccc(-c3ccccc3)cc2)n1C1CCCCCCC1 [compound 13] |  | ~22.9 µM and 22.9 µM | 6.9 | 4.9 | 6.9 | 3.2 µM |  |  |  |
| CCCCCCCCn1c(-c2cccc(Br)c2)cnc1N [compound 16] |  | 11.2 µM | 6.9 | 9.7 | 8 | 40.6 µM |  |  |  |
| COc1ccc(Cc2nc(N)n(C)c2Cc2ccc(O)c(OC)c2)cc1 [2g, naamine F] | cytotoxic |  |  |  |  |  |  |  |  |
| COc1cccc(CCn2c(-c3ccc(Cl)c(Cl)c3)cnc2N)c1 [compound 17] |  | > 400 µM | 6.9 | 8.6 | 6.6 |  |  |  |  |
| CC(C)CNc1ncc(-c2ccc(Br)cc2)[nH]1 [compound 26] |  | 2.9 µM | 31.7 | 306 | 22.6 | 1.2 µM |  |  |  |

| Structure (SMILES) | cytotoxicity to a variety of cell lines [1] | IC50 [2] | IC50 [3] [µM] | IC50 [4] [µM] | IC50 [5] [µM] | IC50 [6] | C. elegans % survival at 25 µM [7] [%] | effect on C. elegans survival at 100 µM ([7]; 100 µM, 7 days of exposure) | effect on C. elegans survival at 200 µM ([7]; 200 µM, 7 days of exposure) |
| --- | --- | --- | --- | --- | --- | --- | --- | --- | --- |
| CCCCCNc1ncc(-c2ccc(Cl)cc2)[nH]1 [compound 23] |  | > 400 µM | 22 | 323 | 19.8 | ~6.3 µM and 6.3 µM |  |  |  |
| CCCCCCCn1c(-c2ccc(-c3ccccc3)cc2)cnc1N [compound 9] |  | 9.3 µM | 7.5 | 8.1 | 8.7 | 25.2 µM |  |  |  |
| c1ccc(-c2cn(CCCCNc3ncc(-c4ccccc4)[nH]3)nn2)cc1 [compound 37] |  | 40 µM | 218 | 459 | 107 | 19 µM | 86.4 |  |  |
| Brc1ccc(-c2cnc(NCCCn3cc(C4CCCCC4)nn3)[nH]2)cc1 [compound 39] |  | 8.4 µM | 20.7 | 396 | 22.5 | ~12.5 µM and 12.5 µM | 99.3 |  |  |
| COc1ccc(-c2cnc(NCCCn3cc(-c4ccc(Br)cc4)nn3)[nH]2)cc1 [compound 38] |  | 91.2 µM | 18.4 | 597 | 16.8 | 42.7 µM |  |  |  |
| Clc1ccc(-c2cnc(NC3CCCC3)[nH]2)cc1Cl [compound 29] |  | 5.7 µM | 76.1 | 156 | 79.8 | 7.9 µM |  |  |  |
| c1ccc(-c2cnc(NC3CCCC3)[nH]2)cc1 [compound 20] |  | 52.9 µM | 27.3 | 293 | 27.3 | 33.8 µM | 98.1 |  |  |
| CCCCCCCCn1c(-c2ccccc2)cnc1N [compound 6] |  | 11.9 µM | 3.2 | 468 | 3 | 18.5 µM | 92.5 |  |  |
| Nc1ncc(-c2ccc(-c3ccccc3)cc2)n1C1CCCCCC1 [compound 12] |  | ~12.5 µM and 12.5 µM | 8.1 | 5.4 | 6.6 | 6.6 µM |  |  |  |
| Nc1nc(-c2ccc(C(F)(F)F)cc2)c(-c2ccc(Cl)cc2)[nH]1 [compound 33] |  | 10.8 µM | 41.5 | 35.5 | 26.1 |  |  |  |  |
| CCCCCNc1ncc(-c2ccc(Br)cc2)[nH]1 [compound 27] |  | 3.1 µM | 14.9 | 375 | 16.3 | 10.2 µM |  |  |  |
| Nc1ncc(-c2ccc(Br)cc2)[nH]1 [compound 5, 5-(p-bromophenyl)-2-aminoimidazole] |  | 47.9 µM | 10.1 | 13.9 | 21.8 | 3.2 µM | 90.6 |  |  |
| CCCCCOc1ccc(Cc2nc(N)n(Cc3ccccc3)c2-c2ccc(C)cc2)cc1 [compound 35] |  | 10.3 µM | 8.6 | 8.4 | 14.8 | 27.4 µM |  |  |  |
| CC(C)CNc1ncc(-c2ccccc2)[nH]1 [compound 19] |  | 4.9 µM | 83.6 | 383 | 91.4 | 1.2 µM |  |  |  |
| Brc1ccc(-c2cnc(NC3CCCC3)[nH]2)cc1 [compound 28] |  | 12.1 µM | 32.7 | 674 | 32.7 | 7.2 µM |  |  |  |
| Clc1ccc(-c2cnc(NC3CCCC3)[nH]2)cc1 [compound 24] |  | 4.4 µM | 35.5 | 591 | 28.8 | 13.5 µM | 100.1 |  |  |
| CCCCCCCCn1c(-c2ccc(F)cc2)cnc1N [compound 14] |  | ~10.8 µM and 10.8 µM | 3.5 | 7.3 | 8.6 | 4.9 µM |  |  |  |
| CCCCCCCCn1c(-c2ccc(SC)cc2)cnc1N [compound 15, N1-octyl-5-[4-SMePh]-2AI] |  | 6.7 µM | 4.1 | 7.2 | 6.3 | 2.8 µM |  |  |  |
| Nc1ncc(-c2ccc(Cl)cc2)[nH]1 [compound 2] |  | 16 µM | 77.5 | 49.6 | 72.3 | 3.5 µM | 84.9 |  |  |
